Like-named read-outs stand apart in the source and are kept apart here.
Tests used:
Septoria tritici—SEPTTR = assay: Leaf Blotch of Wheat, in vivo whole plant, 24 Hour Protectant; conditions: for pest or weed control at 100 ppm: Zymoseptoria tritici, 24 h, control of fungal infection vs untreated plants, read-out: SEPTTR in vivo 1 Day Protectant
[1] = test system: Phytophthora infestans—PHYTIN; assay: whole plant or invertebrate; format: in vivo; conditions: Phytophthora, in Solanum lycopersicum, 24 h, read-out: PHYTIN in vivo 1 Day Protectant
Ustilago maydis (USTIMA) = assay: microbe, parasite or virus in culture; format: cell-based; conditions: Mycosarcoma maydis, read-out: USTIMA in vitro Growth Inhibition
[2] = test system: Mycosphaerella graminicola (Septoria tritici—SEPTTR); assay: In vitro fungal growth inhibition, Mycosphaerella graminicola (SEPTTR); format: cell-based; conditions: Zymoseptoria tritici, read-out: SEPTTR in vitro Growth Inhibition
[3] = test system: Stagonospora nodorum (Leptosphaeria nodorum—LEPTNO); assay: In vitro fungal growth inhibition, Stagonospora nodorum (LEPTNO); format: cell-based; conditions: Leptosphaeria, read-out: LEPTNO in vitro Growth Inhibition
[4] = test system: Phytophthora infestans (PHYTIN); assay: microbe, parasite or virus in culture; format: cell-based; conditions: Phytophthora infestans, read-out: PHYTIN in vitro Growth Inhibition
Erysiphe graminis—ERYSGT = assay: Powdery Mildew of Wheat, in vivo whole plant, 24 Hour Protectant; conditions: Erysiphe, read-out: ERYSGT in vivo 1 Day Protectant
[5] = test system: Puccinia recondita—PUCCRT; assay: Brown Rust of Wheat, in vivo whole plant, 24 Hour Protectant; conditions: for pest or weed control at 100 ppm: Puccinia, read-out: PUCCRT in vivo 1 Day Protectant
[6] = test system: Magnaporthe grisea (Pyricularia oryzae—PYRIOR); assay: microbe, parasite or virus in culture; format: cell-based; conditions: Pyricularia oryzae, read-out: PYRIOR in vitro Growth Inhibition
[7] = test system: Rhizoctonia solani (RHIZSO); assay: microbe, parasite or virus in culture; format: cell-based; conditions: Rhizoctonia solani, read-out: RHIZSO in vitro Growth Inhibition
[8] = test system: Leptosphaeria nodorum—LEPTNO; assay: Glume Blotch of Wheat, in vivo whole plant, 24 Hour Protectant; conditions: for pest or weed control at 100 ppm: Leptosphaeria, read-out: LEPTNO in vivo 1 Day Protectant
[9] = 100 ppm spray, wheat, 24 hour protectant
[10] = 100 ppm spray, wheat, 24 hour protectant, control of fungal infection vs untreated plants
[11] = 100 ppm spray, 24 hour protectant, wheat
[12] = 100 ppm spray, 24 hour protectant, wheat, control of fungal infection vs untreated plants
[13] = wheat plants sprayed at 100 ppm, inoculated after 24 hours
[14] = wheat plants sprayed at 100 ppm, inoculated after 24 hours, control of fungal infection vs untreated plants
[15] = 100 ppm spray, wheat, 24 hour protectant, % control of fungal infection vs untreated plants

Row | Structure (SMILES) | pest or weed control at 100 ppm (Septoria tritici—SEPTTR; [9]) [%] | pest or weed control at 100 ppm [1] [%] | inhibition at 25 ppm (Ustilago maydis (USTIMA)) [%] | inhibition at 25 ppm ([2]; 25 ppm in growth medium) [%] | inhibition at 25 ppm ([3]; 25 ppm in growth medium) [%] | inhibition at 25 ppm [4] [%] | pest or weed control at 100 ppm (Erysiphe graminis—ERYSGT; [10]) [%] | inhibition at 25 ppm [6] [%] | inhibition at 25 ppm [7] [%] | pest or weed control at 100 ppm (Septoria tritici—SEPTTR; [11]) [%] | pest or weed control at 100 ppm (Erysiphe graminis—ERYSGT; [12]) [%] | pest or weed control at 100 ppm [5, 12] [%] | pest or weed control at 100 ppm [8, 12] [%] | also measured
1 | COc1ccnc(C(=O)Nc2ccc(Oc3ccc(C#N)cc3)cc2)c1O [Compound 422] | < 25 | 25 to 74 | < 80 | < 80 | < 80 | < 80 | < 25 | > 80 | < 80 |  |  |  |  | pest or weed control at 100 ppm [5, 10]: < 25%; pest or weed control at 100 ppm [8, 10]: < 25%
2 | CCC1(C)OCC(NC(=O)c2nccc(OC)c2O)CO1 (stereo not drawn) [Compound 314] |  | < 25 | < 80 | < 80 | < 80 | < 80 |  | < 80 | < 80 | < 25 | < 25 | < 25 | 25 to 74 | 
3 | COc1ccnc(C(=O)NC(COC(=O)C(C)Cc2ccccc2)C(=O)OC(C)C)c1OC(C)=O (stereo not drawn) [Compound 588] |  | < 25 | < 80 |  |  | < 80 |  | < 80 | < 80 |  |  |  |  | pest or weed control at 100 ppm (Septoria tritici—SEPTTR; [13]): < 25%; inhibition at 25 ppm ([2]; 25 ppm in the growth medium): < 80%; inhibition at 25 ppm ([3]; 25 ppm in the growth medium): < 80%; pest or weed control at 100 ppm (Erysiphe graminis—ERYSGT; [14]): < 25%; PUCCRT in vivo 1 Day Protectant [5, 14]: + +; pest or weed control at 100 ppm [8, 14]: 25 to 74%
4 | COc1ccnc(C(=O)NC2CC(C)(C)C(Cl)C(Cl)[C@H](C)[C@H]2C)c1O (stereo partly drawn) [Compound 281] |  | 25 to 74 | < 80 | < 80 | < 80 | > 80 |  | > 80 | < 80 | 25 to 74 | 25 to 74 | 25 to 74 | 25 to 74 | 
5 | COc1ccnc(C(=O)NC(COC(=O)CC(C)O[Si](C)(C)C(C)(C)C)C(=O)OC(C)C)c1O (stereo not drawn) [Compound 354] | < 25 | < 25 | < 80 |  |  | < 80 | 25 to 74 | < 80 | < 80 |  |  |  |  | inhibition at 25 ppm [2]: < 80%; inhibition at 25 ppm [3]: < 80%; PUCCRT in vivo 1 Day Protectant [5, 10]: + +; pest or weed control at 100 ppm [8, 10]: < 25%
6 | COc1ccnc(C(=O)N[C@H]2COC(=O)[C@H](Cc3ccccc3)[C@@H](OC(=O)C(C)C)[C@H](C)OC2=O)c1OC(=O)c1cnc(Cl)c(Cl)c1 [Compound 670] |  | < 25 | < 80 | < 80 | > 80 | > 80 |  | < 80 | < 80 |  |  |  |  | SEPTTR in vivo 1 Day Protectant (Septoria tritici—SEPTTR; [15]): + +; pest or weed control at 100 ppm (Erysiphe graminis—ERYSGT; [15]): < 25%; PUCCRT in vivo 1 Day Protectant [5, 15]: + +; LEPTNO in vivo 1 Day Protectant [8, 15]: + +
7 | COc1ccnc(C(=O)NC2CCCC2O)c1O (stereo not drawn) [Compound 248] |  | < 25 | < 80 | < 80 | < 80 | < 80 |  | < 80 | < 80 | < 25 | < 25 | < 25 | 25 to 74 | 
8 | O=C(NCc1ccc(Cl)cc1)c1ccncc1O [Compound 507] |  | < 25 | < 80 |  |  | < 80 |  | < 80 | < 80 |  |  |  |  | pest or weed control at 100 ppm (Septoria tritici—SEPTTR; [13]): < 25%; inhibition at 25 ppm ([2]; 25 ppm in the growth medium): < 80%; inhibition at 25 ppm ([3]; 25 ppm in the growth medium): < 80%; pest or weed control at 100 ppm (Erysiphe graminis—ERYSGT; [14]): < 25%; pest or weed control at 100 ppm [5, 14]: < 25%; pest or weed control at 100 ppm [8, 14]: < 25%
9 | COc1ccnc(C(=O)N[C@@H]2OC[C@@H](OC(C)=O)[C@H](OC(C)=O)[C@H]2OC(C)=O)c1O [Compound 330] | < 25 | < 25 | < 80 | < 80 | < 80 | < 80 | < 25 | < 80 | < 80 |  |  |  |  | pest or weed control at 100 ppm [5, 10]: < 25%; pest or weed control at 100 ppm [8, 10]: < 25%
10 | COc1ccnc(C(=O)N[C@H]2COC(=O)[C@H](Cc3ccccc3)[C@@H](OC(=O)OC(C)C)[C@H](C)OC2=O)c1O [Compound 401] | 25 to 74 | < 25 | > 80 | > 80 | > 80 | < 80 | < 25 | > 80 | < 80 |  |  |  |  | pest or weed control at 100 ppm [5, 10]: 25 to 74%; LEPTNO in vivo 1 Day Protectant [8, 10]: + +
11 | CC1(C)CC(NC(=O)c2ncccc2O)CC(C)(C2CC2)C1 (stereo not drawn) [Compound 204] |  | < 25 | < 80 | < 80 | < 80 | < 80 |  | < 80 | < 80 | 25 to 74 | < 25 | < 25 | < 25 | 
12 | CC(NC(=O)c1ccncc1O)c1ccc(C(F)(F)F)cc1 (stereo not drawn) [Compound 510] |  | 25 to 74 | < 80 |  |  | < 80 |  | < 80 | < 80 |  |  |  |  | pest or weed control at 100 ppm (Septoria tritici—SEPTTR; [13]): < 25%; inhibition at 25 ppm ([2]; 25 ppm in the growth medium): < 80%; inhibition at 25 ppm ([3]; 25 ppm in the growth medium): < 80%; pest or weed control at 100 ppm (Erysiphe graminis—ERYSGT; [14]): < 25%; pest or weed control at 100 ppm [5, 14]: < 25%; pest or weed control at 100 ppm [8, 14]: < 25%
13 | C[C@@H](NC(=O)c1ncccc1O)c1cccc2ccccc12 [Compound 231] |  | < 25 | < 80 | < 80 | < 80 | < 80 |  | > 80 | < 80 | < 25 | < 25 | < 25 | < 25 | 
14 | COc1ccnc(C(=O)Nc2ccc(Oc3cccc(C(F)(F)F)c3)cc2)c1O [Compound 424] | 25 to 74 | 25 to 74 | < 80 | < 80 | > 80 | < 80 | 25 to 74 | < 80 | < 80 |  |  |  |  | pest or weed control at 100 ppm [5, 10]: 25 to 74%; pest or weed control at 100 ppm [8, 10]: 25 to 74%
15 | O=C(NCCc1ccc(Cl)cc1)c1ncccc1O [Compound 233, N-(2-(4-CHLOROPHENYL)ETHYL)-3-HYDROXYPYRIDINE-2-CARBOXAMIDE] |  | < 25 | > 80 | > 80 | > 80 | > 80 |  | > 80 | < 80 | 25 to 74 | < 25 | < 25 | < 25 | 

— US6706740B2, “Fungicidal heterocyclic aromatic amides and their compositions, methods of use and preparation” (Dow AgroSciences LLC, priority 1999, dated 2004)
